Measured values published in patent US10576062B2, “Carbamoyloxymethyl triazole cyclohexyl acids as LPA antagonists” (Bristol-Myers Squibb Company, priority 2016, dated 2020).

Each compound was assayed against T1, human LPA1 (Homo sapiens, UniProt Q92633) (assay: LPA1 functional antagonist assay (LPA-induced calcium flux)). Settings: CHO cells overexpressing human LPA1; inhibition of calcium flux induced by 10 nM LPA; read-out: hLPA1 IC50.
T1 construct: expressed in transfected cells; host or cells: Chinese hamster ovary (CHO) cells
Assay type: cell-based
Procedure, shortened: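 CHO cells overexpressing human LPA1, loaded with calcium dye 30 min at 37° C, were preincubated 20 min at room temperature with compound (0.08 nM–5 μM, 0.5% DMSO) in HBSS/20 mM HEPES/0.1% fatty acid-free BSA.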

T1 sequence (Q92633 whole entry): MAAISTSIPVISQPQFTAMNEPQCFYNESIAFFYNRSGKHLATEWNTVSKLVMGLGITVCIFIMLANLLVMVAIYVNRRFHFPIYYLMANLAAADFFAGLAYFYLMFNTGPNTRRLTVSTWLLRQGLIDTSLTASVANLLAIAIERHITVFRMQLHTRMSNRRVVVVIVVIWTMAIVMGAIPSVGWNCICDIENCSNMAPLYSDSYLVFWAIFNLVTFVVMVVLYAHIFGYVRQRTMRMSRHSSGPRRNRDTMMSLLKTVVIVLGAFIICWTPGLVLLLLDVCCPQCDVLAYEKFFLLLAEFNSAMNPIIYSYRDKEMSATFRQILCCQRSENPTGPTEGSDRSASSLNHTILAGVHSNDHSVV

| SMILES | IC50 [nM] |
| --- | --- |
| CCCCN(C)C(=O)OCc1c(-c2cnc(O[C@H]3CCC[C@H](C(=O)O)C3)cn2)nnn1C [Example 212, (1S,3S)-3-((5-(5-(((butyl(methyl)carbamoyl)oxy)methyl)-1-methyl-1H-1,2,3-triazol-4-yl)pyrazin-2-yl)oxy)cyclohexane-1-carboxylic acid] | 40 |
| CN(C(=O)OCc1c(-c2ccc(O[C@H]3CCC[C@H](C(=O)O)C3)c(C(F)F)n2)nnn1C)C1CCC1 [Example 280, (1S,3S)-3-((6-(5-(((cyclobutyl(methyl)carbamoyl)oxy)methyl)-1-methyl-1H-1,2,3-triazol-4-yl)-2-(difluoromethyl)pyridin-3-yl)oxy)cyclohexane-1-carboxylic acid] | 22 |
| CCCN(C)C(=O)OCc1c(-c2cnc(O[C@H]3CCC[C@H](C(=O)O)C3)c(C)n2)nnn1C [Example 218, (1S,3S)-3-((3-methyl-5-(1-methyl-5-(((methyl(propyl)carbamoyl)oxy)methyl)-1H-1,2,3-triazol-4-yl)pyrazin-2-yl)oxy)cyclohexane-1-carboxylic Acid] | 194 |
| CCCN(C)C(=O)OCc1c(-c2ccc(O[C@H]3CCC[C@H](C(=O)O)C3)c(C(F)(F)F)n2)nnn1C [Example 274, (1S,3S)-3-((6-(1-methyl-5-(((methyl(propyl)carbamoyl)oxy)methyl)-1H-1,2,3-triazol-4-yl)-2-(trifluoromethyl)pyridin-3-yl)oxy)cyclohexane-1-carboxylic acid] | 28 |
| CCCN(C)C(=O)OCc1c(-c2ccc(O[C@H]3CCC[C@H](C(=O)O)C3)c(CC)n2)nnn1C [Example 200, (1S,3S)-3-((2-ethyl-6-(1-methyl-5-(((methyl(propyl)carbamoyl)oxy)methyl)-1H-1,2,3-triazol-4-yl)pyridin-3-yl)oxy)cyclohexane-1-carboxylic acid] | 11 |
| Cc1nc(-c2nnn(C)c2COC(=O)N(C)CC2CC2)cnc1O[C@H]1CCC[C@H](C(=O)O)C1 [Example 220, (1S,3S)-3-((5-(5-((((cyclopropyl-methyl)(methyl)carbamoyl)oxy)methyl)-1-methyl-1H-1,2,3-triazol-4-yl)-3-methyl-pyrazin-2-yl)oxy)cyclohexane-1-carboxylic acid] | 149 |
| COCc1nc(-c2nnn(C)c2COC(=O)N(C)CC2CCC2)ccc1O[C@H]1CCC[C@H](C(=O)O)C1 [Example 268, (1S,3 S)-3-((6-(5-((((cyclobutylmethyl)(methyl)carbamoyl)oxy)methyl)-1-methyl-1H-1,2,3-triazol-4-yl)-2-(methoxymethyl)pyridin-3-yl)oxy)cyclohexane-1-carboxylic Acid] | 103 |
| CCCN(C)C(=O)OCc1c(-c2ccc(O[C@H]3CCC[C@H](C(=O)O)C3)c(OC)n2)nnn1C [Example 272, (1S,3 S)-3-((2-Methoxy-6-(1-methyl-5-(((methyl(propyl)carbamoyl)oxy)methyl)-1H-1,2,3-triazol-4-yl)pyridin-3-yl)oxy)cyclohexane-1-carboxylic Acid] | 4 |
| CN(CC1CCC1)C(=O)OCc1c(-c2ccc(O[C@H]3CCC[C@H](C(=O)O)C3)c(C#N)n2)nnn1C [Example 292, (1S,3S)-3-((2-cyano-6-(5-((((cyclobutylmethyl)(methyl)carbamoyl)oxy)methyl)-1-methyl-1H-1,2,3-triazol-4-yl)pyridin-3-yl)oxy)cyclohexane-1-carboxylic acid] | 20 |
| COCc1nc(-c2nnn(C)c2COC(=O)N(C)CC2CC2)ccc1O[C@H]1CCC[C@H](C(=O)O)C1 [Example 285, (1S,3S)-3-((6-(5-((((cyclopropylmethyl)(methyl)carbamoyl)oxy)methyl)-1-methyl-1H-1,2,3-triazol-4-yl)-2-(methoxymethyl)pyridin-3-yl)oxy)cyclohexane-1-carboxylic acid] | 1010 |
| Cc1nc(-c2nnn(C)c2COC(=O)N(C)CC(C)(C)C)ccc1O[C@H]1CCC[C@H](C(=O)O)C1 [Example 264, (1S,3S)-3-((2-methyl-6-(1-methyl-5-(((methyl(neopentyl)carbamoyl)oxy)methyl)-1H-1,2,3-triazol-4-yl)pyridin-3-yl)oxy)cyclohexane-1-carboxylic acid] | 76 |

Same assay, conditions: human LPA1; read-out: hLPA1 IC50

| SMILES | IC50 [nM] |
| --- | --- |
| CN(C(=O)OCc1c(-c2ccc(O[C@H]3CCC[C@H](C(=O)O)C3)cn2)nnn1C)C1CCC1 [Example 174, (1S,3S)-3-((6-(5-(((cyclobutyl(methyl)carbamoyl)oxy)methyl)-1-methyl-1H-1,2,3-triazol-4-yl)pyridin-3-yl)oxy)cyclohexane-1-carboxylic acid] | 58 |
| CC(C)=CCN(C)C(=O)OCc1c(-c2ccc(O[C@H]3CCC[C@@H](C(=O)O)C3)c(C)n2)nnn1C [Example 172, (1R,3S)-3-((2-methyl-6-(1-methyl-5-(((methyl(3-methylbut-2-en-1-yl)carbamoyl)oxy)methyl)-1H-1,2,3-triazol-4-yl)pyridin-3-yl)oxy)cyclohexane-1-carboxylic acid] | 312 |
| CCC1CCN(C(=O)OCc2c(-c3ccc(O[C@H]4CCC[C@H](C(=O)O)C4)c(C)n3)nnn2C)C1 (mixture of isomers) [Example 165, (1S,3S)-3-((6-(5-(((3-ethylpyrrolidine-1-carbonyl)oxy)methyl)-1-methyl-1H-1,2,3-triazol-4-yl)-2-methylpyridin-3-yl)oxy)cyclohexane-1-carboxylic acid] | 102 |
| Cn1nnc(-c2ccc(O[C@H]3CCC[C@H](C(=O)O)C3)cn2)c1COC(=O)N1CC2(CCC2)C1 [Example 176, (1S,3S)-3-((6-(5-(((2-azaspiro[3.3]heptane-2-carbonyl)oxy)methyl)-1-methyl-1H-1,2,3-triazol-4-yl)pyridin-3-yl)oxy)cyclohexane-1-carboxylic acid] | 400 |

Same assay, conditions: read-out: hLPA1 IC50

| SMILES | IC50 [nM] |
| --- | --- |
| Cc1nc(-c2nnn(C)c2COC(=O)N2CCCC2CC(C)C)ccc1O[C@H]1CCC[C@H](C(=O)O)C1 (mixture of isomers) [Example 153, (1S,3S)-3-((6-(5-(((2-isobutylpyrrolidine-1-carbonyl)oxy)methyl)-1-methyl-1H-1,2,3-triazol-4-yl)-2-methylpyridin-3-yl)oxy)cyclohexane-1-carboxylic acid] | 163 |
| Cc1nc(-c2nnn(C)c2COC(=O)N(C)CC(C)C)ccc1O[C@H]1CCC[C@H](C(=O)O)C1 [Example 116, (1S,3S)-3-((6-(5-(((isobutyl(methyl)carbamoyl)oxy)methyl)-1-methyl-1H-1,2,3-triazol-4-yl)-2-methylpyridin-3-yl)oxy)cyclohexane-1-carboxylic acid] | 29 |
| Cc1nc(-c2nnn(C)c2COC(=O)N2CCCC(C)(C)C2)ccc1O[C@H]1CCC[C@H](C(=O)O)C1 [Example 137, (1S,3S)-3-((6-(5-(((3,3-dimethylpiperidine-1-carbonyl)oxy)methyl)-1-methyl-1H-1,2,3-triazol-4-yl)-2-methylpyridin-3-yl)oxy)cyclohexane-1-carboxylic acid] | 292 |
| CN(C(=O)OCc1c(-c2ccc(O[C@H]3CCC[C@H](C(=O)O)C3)cn2)nnn1C)C1CCCC1 (racemic) [Example 18, (rac)-3-((6-(5-(((cyclopentyl(methyl)carbamoyl)oxy)methyl)-1-methyl-1H-1,2,3-triazol-4-yl)pyridin-3-yl)oxy)cyclohexane-1-carboxylic acid] | 21 |
| Cc1nc(-c2nnn(C)c2COC(=O)N(C)C2(C(C)C)CC2)ccc1O[C@H]1CCC[C@H](C(=O)O)C1 [Example 129, (1S,3S)-3-((6-(5-((((1-isopropylcyclopropyl)(methyl)carbamoyl)oxy)methyl)-1-methyl-1H-1,2,3-triazol-4-yl)-2-methylpyridin-3-yl)oxy)cyclohexane-1-carboxylic acid] | 352 |
| Cc1nc(-c2nnn(C)c2COC(=O)N2CCC3(CCC3)C2)ccc1O[C@H]1CCC[C@H](C(=O)O)C1 [Example 135, (1S,3S)-3-((6-(5-(((6-azaspiro[3.4]octane-6-carbonyl)oxy)methyl)-1-methyl-1H-1,2,3-triazol-4-yl)-2-methylpyridin-3-yl)oxy)cyclohexane-1-carboxylic acid] | 47 |
| CCCC1(N(C)C(=O)OCc2c(-c3ccc(O[C@H]4CCC[C@H](C(=O)O)C4)cn3)nnn2C)CC1 [Example 81, (1S,3S)-3-((6-(1-methyl-5-(((methyl(1-propylcyclopropyl)carbamoyl)oxy)methyl)-1H-1,2,3-triazol-4-yl)pyridin-3-yl)oxy)cyclohexane-1-carboxylic acid] | 61 |
| CCCC(C)N(C)C(=O)OCc1c(-c2ccc(O[C@H]3CCC[C@H](C(=O)O)C3)c(F)c2)nnn1C (mixture of isomers) [Example 28, (1S,3S)-3-(2-fluoro-4-(1-methyl-5-(((methyl(pentan-2-yl)carbamoyl)oxy)methyl)-1H-1,2,3-triazol-4-yl)phenoxy)cyclohexane-1-carboxylic acid] | 25 |
| Cc1nc(-c2nnn(C)c2COC(=O)N2CC3(CCC3)C2)ccc1O[C@H]1CCC[C@H](C(=O)O)C1 [Example 134, (1S,3S)-3-((6-(5-(((2-azaspiro[3.3]heptane-2-carbonyl)oxy)methyl)-1-methyl-1H-1,2,3-triazol-4-yl)-2-methylpyridin-3-yl)oxy)cyclohexane-1-carboxylic acid] | 76 |
| Cc1nc(-c2nnn(C)c2COC(=O)N2CCC2C)ccc1O[C@H]1CCC[C@H](C(=O)O)C1 (mixture of isomers) [Example 157, (1S,3S)-3-((2-methyl-6-(1-methyl-5-(((2-methylazetidine-1-carbonyl)oxy)methyl)-1H-1,2,3-triazol-4-yl)pyridine-3-yl)oxy)cyclohexane-1-carboxylic acid] | 529 |
| Cc1nc(-c2nnn(C)c2COC(=O)N2CCC(CC(C)C)C2)ccc1O[C@H]1CCC[C@H](C(=O)O)C1 (mixture of isomers) [Example 151, (1S,3S)-3-((6-(5-(((3-isobutylpyrrolidine-1-carbonyl)oxy)methyl)-1-methyl-1H-1,2,3-triazol-4-yl)-2-methylpyridin-3-yl)oxy)cyclohexane-1-carboxylic acid] | 101 |
